Data taken from the supplement of paper PMC4862054.

Legend:
Conditions in all cases: incubation time: 72 h
BT-474 [1] = test: normalised response (% of control), CellTox Green; higher = less cell death (100 = DMSO, 0 = benzethonium chloride kill control)
Method in brief: (§1)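 Compound was dispensed into 384-well plates at 5 concentrations in 10-fold steps spanning a 10,000-fold range specific to that compound. Breast cancer cell lines were added as 20 µl suspension and left for 72 h before CellTox Green fluorescence (485/520 nm) and then CellTiter-Glo luminescence, read after 10 min at room temperature. Each reported value is the normalised signal at one concentration, with 0.1 % DMSO set at 100 and a positive kill control at 0 on each plate.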

BT-549 [2] = test: as above
Method in brief: as §1

CAL-120 [3] = test: as above
Method in brief: as §1

CAL-148 [4] = test: as above
Method in brief: as §1

CAL-51 [5] = test: as above
Method in brief: as §1

CAL-85-1 [6] = test: as above
Method in brief: as §1

DU-4475 [7] = test: as above
Method in brief: as §1

HCC1143 [8] = test: as above
Method in brief: as §1

HCC1599 [9] = test: as above
Method in brief: as §1

HCC1937 [10] = test: as above
Method in brief: as §1

HDQ-P1 [11] = test: as above
Method in brief: as §1

Hs578T [12] = test: as above
Method in brief: as §1

MCF-10A [13] = test: as above
Method in brief: as §1

MDA-MB-231 [14] = test: as above
Method in brief: as §1

MDA-MB-436 [15] = test: as above
Method in brief: as §1

MDA-MB-453 [16] = test: as above
Method in brief: as §1

MDA-MB-468 [17] = test: as above
Method in brief: as §1

MFM-223 [18] = test: as above
Method in brief: as §1

BT-474 [19] = test: normalised response (% of control), CellTiter-Glo; higher = more viable cells (100 = DMSO, 0 = benzethonium chloride kill control)
Description: (§2)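 DSRT, 72 h incubation, CellTox Green / CellTiter-Glo readout. Signal is normalised to DMSO and benzethonium chloride controls. Value is the normalised response at the highest dose.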

BT-549 [20] = test: as above
Description: as §2

CAL-120 [21] = test: as above
Description: as §2

CAL-148 [22] = test: as above
Description: as §2

CAL-51 [23] = test: as above
Description: as §2

CAL-85-1 [24] = test: as above
Description: as §2

DU-4475 [25] = test: as above
Description: as §2

HCC1143 [26] = test: as above
Description: as §2

HCC1599 [27] = test: as above
Description: as §2

HCC1937 [28] = test: as above
Description: as §2

HDQ-P1 [29] = test: as above
Description: as §2

Hs578T [30] = test: as above
Description: as §2

MCF-10A [31] = test: as above
Description: as §2

MDA-MB-231 [32] = test: as above
Description: as §2

MDA-MB-436 [33] = test: as above
Description: as §2

MDA-MB-453 [34] = test: as above
Description: as §2

MDA-MB-468 [35] = test: as above
Description: as §2

MFM-223 [36] = test: as above
Description: as §2

SK-BR-3 = test: as above
Description: as §2

Structure (SMILES)	normalised response (BT-474 [1]) [%]	normalised response (BT-549 [2]) [%]	normalised response (CAL-120 [3]) [%]	normalised response (CAL-148 [4]) [%]	normalised response (CAL-51 [5]) [%]	normalised response (CAL-85-1 [6]) [%]	normalised response (DU-4475 [7]) [%]	normalised response (HCC1143 [8]) [%]	normalised response (HCC1599 [9]) [%]	normalised response (HCC1937 [10]) [%]	normalised response (HDQ-P1 [11]) [%]	normalised response (Hs578T [12]) [%]	normalised response (MCF-10A [13]) [%]	normalised response (MDA-MB-231 [14]) [%]	normalised response (MDA-MB-436 [15]) [%]	normalised response (MDA-MB-453 [16]) [%]	normalised response (MDA-MB-468 [17]) [%]	normalised response (MFM-223 [18]) [%]	normalised response (BT-474 [19]) [%]	normalised response (BT-549 [20]) [%]	normalised response (CAL-120 [21]) [%]	normalised response (CAL-148 [22]) [%]	normalised response (CAL-51 [23]) [%]	normalised response (CAL-85-1 [24]) [%]	normalised response (DU-4475 [25]) [%]	normalised response (HCC1143 [26]) [%]	normalised response (HCC1599 [27]) [%]	normalised response (HCC1937 [28]) [%]	normalised response (HDQ-P1 [29]) [%]	normalised response (Hs578T [30]) [%]	normalised response (MCF-10A [31]) [%]	normalised response (MDA-MB-231 [32]) [%]	normalised response (MDA-MB-436 [33]) [%]	normalised response (MDA-MB-453 [34]) [%]	normalised response (MDA-MB-468 [35]) [%]	normalised response (MFM-223 [36]) [%]	normalised response (SK-BR-3) [%]
O=C1NC(=O)[C@@H](c2cn3c4c(cccc24)CCC3)[C@@H]1c1c[nH]c2ccccc12 [Tivantinib] (1000 nM)	76	85.3	74.4	71.5	26.8	20.5	93.6	104	77.5	84.5	80.2	52.5	57.7	11.1	68.1	96.2	60.4	76.4	60.2	35.4	49.4	41.5	38.7	30.6	71.6	53.5	47.9	69.4	69.9	24.6	58.1	56.2	43.6	54.3	29.7	60	16.4
CO[C@H]1C[C@@H]2CC[C@@H](C)[C@@](O)(O2)C(=O)C(=O)N2CCCC[C@H]2C(=O)O[C@H]([C@H](C)C[C@@H]2CC[C@@H](OCCO)[C@H](OC)C2)CC(=O)[C@H](C)/C=C(\C)[C@@H](O)[C@@H](OC)C(=O)[C@H](C)C[C@H](C)/C=C/C=C/C=C/1C [Everolimus] (100 nM)	100	100	99.3	92.5	98.1	122	95.4	66.4	95.8	88.6	109	79.6	92.9	111	99.7	104	158	53.1	77.6	61	63.5	53.4	64.3	63.1	63.7	61.5	104	66.1	72.9	65.1	80.9	87.9	75.5	51.5	57.5	61.6	49.5
COc1ccc(-c2ccc3c(N4CCOC[C@@H]4C)nc(N4CCOC[C@@H]4C)nc3n2)cc1CO [AZD8055] (10000 nM)	48	111	102	56.6	76.6	88.1	82.6	-36.9	86.4	97.3	99.7	94.8	76.3	97.3	68.7	92.3	27.8	83.7	42.5	19.9	18.8	14.6	15.9	27.6	15.3	25.3	77.3	38.3	29	22.4	21.4	33.5	46.4	27.2	21	26.4	18.2
